The numbers were not newly measured in paper PMC7797166 (Journal of thoracic oncology : official publication of the …, 2020), which cites them from elsewhere.

Like-named read-outs stand apart in the source and are kept apart here.

In the series the test system is T cell. The settings on record: ref Li et al[31], cited from earlier work.

Consider HVKITDFGR, for which the tetramer assay result (HLA-A*31:01) was “positive”. Turning to KITDFGRAK, the tetramer assay result (HLA-A*11:01) is listed as “negative”.
